Converted amounts (≈) assume the structure as drawn.
Tested on: KB
Experiment: Cytotoxicity against human KB cells
Format: functional
Settings: for EC50: Homo sapiens, KB, read-out: ED50 (the source's name)

Compound | pED50 | EC50 [µg/mL] | ED50 [µg/mL] | ED100 [µg/mL]
C=C1C(=O)O[C@@H]2[C@H]1CC[C@H](C)[C@@H]1C[C@@H](O)C(=O)[C@@]21C | 5 | 2.65 (≈ 10 µM) | – | –
C=C1C(=O)O[C@H]2[C@H]1[C@H](OC(=O)/C(C)=C\C)C[C@@]1(CO1)[C@@H]1[C@H](O)[C@H]3O[C@@]3(C)[C@]21O | 5.18 | 2.6 (≈ 6.63 µM) | – | –
C=C1C(=O)O[C@H]2C[C@@H](C)[C@@H]3C=CC(=O)[C@@]3(C)C[C@H]12 (single isomer, unassigned) [AROMATICIN] | 5.86 | 0.34 (≈ 1.38 µM) | – | –
C=C1C(=O)O[C@H]2[C@H]1[C@H](OC(=O)/C(C)=C\C)C[C@](O)(CCl)[C@@H]1[C@H](O)[C@H]3O[C@@]3(C)[C@]21O (single isomer, unassigned) [EUPACHLOROXIN] | 5.08 | 3.6 (≈ 8.39 µM) | – | –
C=C1C(=O)O[C@@H]2/C=C(/C)[C@@H](OC(C)=O)CC(O)/C(C)=C\[C@@H](OC(=O)C3(C)O[C@@H]3C)[C@@H]12 (single isomer, unassigned) [EUPACUNOXIN] | 5.3 | 2.1 (≈ 4.99 µM) | – | –
C=C1C(=O)O[C@H]2C[C@@H](C)[C@@H]3C=CC(=O)[C@@]3(C)[C@H](O)[C@H]12 (single isomer, unassigned) [MEXICANIN I] | 5.9 | 0.33 (≈ 1.26 µM) | – | –
C=C[C@@]12COC(=O)C(=C)[C@@H]1[C@H]1OC(=O)C(=C)[C@@H]1[C@@H](OC(=O)C(=C)C)C2 (single isomer, unassigned) [VERNOLEPIN METHACRYLATE] | 5.91 | 0.42 (≈ 1.22 µM) | – | –
C=C1C(=O)O[C@@H]2C[C@@H](C)[C@@H]3C=CC(=O)[C@@]3(C)[C@@H](O)[C@H]12 (stereo in doubt) [HELENALIN] | 6.12 | 0.2 (≈ 0.762 µM) | – | –
C=C1C(=O)O[C@H]2[C@H]1[C@H](OC(=O)/C(C)=C\C)CC(=C)[C@@H]1[C@H](O)[C@H]3O[C@@]3(C)[C@@]12O (stereo in doubt; 20) [EUPATUNDIN] | 6.46 | – | 0.47 (≈ 1.25 µM) | –
C=C1C(=O)O[C@H]2[C@H]1[C@H](OC(=O)/C(C)=C\C)CC(=C)[C@@H]1[C@H](O)[C@H]3O[C@@]3(C)[C@@]12O (stereo in doubt; 28) [EUPATUNDIN] | 5.98 | 0.47 (≈ 1.25 µM) | – | –
C=C1C(=O)O[C@@H]2[C@H]1CC[C@H](C)[C@@H]1C=CC(=O)[C@@]21C [AMBROSIN] | 5.74 | 0.45 (≈ 1.83 µM) | – | –
C=C1C(=O)O[C@H]2C/C(C)=C/C[C@@H](OC(C)=O)/C(C)=C/[C@@H](OC(C)=O)[C@H]12 [CHAMISSONIN DIACETATE] | 5.68 | 2.13 | – | –
C=C1C(=O)O[C@@H]2[C@H]1CC[C@H](C)[C@]1(O)CCC(=O)[C@@]21C [CORONOPILIN] | 5.26 | 1.45 (≈ 5.49 µM) | – | –
C=C1C(=O)O[C@@H]2/C=C(\C)CCC=C(C)CC[C@@H]12 [COSTUNOLIDE] | 5.61 | 0.57 (≈ 2.45 µM) | – | –
C=C1C(=O)O[C@@H]2[C@H]1[C@@H](O)C[C@H](C)[C@@H]1CCC(=O)[C@@]21C [DESACETYLCONFERTIFLORIN] | 5.06 | 2.3 (≈ 8.7 µM) | – | –
C=C1C(=O)O[C@H]2[C@H]1[C@@H](OC(=O)C=C(C)C)CC1=C[C@@H](C[C@@]3(C)O[C@H]23)OC1=O [ELEPHANTIN] | 5.49 | 1.16 (≈ 3.1 µM) | – | –
C=C1C(=O)O[C@H]2CC3=C[C@@H](C[C@]4(C)O[C@@H]4[C@@H](O)[C@H]12)OC3=O [ELEPHANTOL] | 3.91 | 36 (≈ 123 µM) | – | –
C=C(C)C(=O)O[C@H]1CC2=C[C@@H](C[C@@]3(C)O[C@@H]3[C@H]3OC(=O)C(=C)[C@@H]31)OC2=O [ELEPHANTOPIN] | 5.6 | 0.94 (≈ 2.61 µM) | – | –
C=C1C(=O)O[C@H]2[C@H]1[C@H](OC(=O)/C(C)=C\C)C[C@](O)(CCl)[C@@H]1[C@H](OC(C)=O)C=C(C)[C@]21O [EUPACHLORIN ACETATE] | 5.21 | 0.16 | – | –

Compound | pED50 | EC50 [µg/mL] | ED50 [µg/mL] | ED100 [µg/mL]
C=C1C(=O)O[C@H]2[C@H]1[C@H](OC(=O)/C(C)=C\C)C[C@](O)(CCl)[C@@H]1[C@H](O)C=C(C)[C@]21O [EUPACHLORIN] | 6.29 | 0.21 (≈ 0.509 µM) | – | –
C=C1C(=O)O[C@@H]2/C=C(/CO)[C@@H](OC(C)=O)C[C@H](O)/C(C)=C\[C@@H](OC(=O)C(C)=CC)[C@@H]12 [EUPACUNOLIN] | 5.06 | 3.7 (≈ 8.8 µM) | – | –
C=C1C(=O)O[C@H]2[C@H]1[C@H](OC(=O)/C(C)=C\C)C[C@]1(CO1)[C@@H]1[C@H](OC(C)=O)C=C(C)[C@]21O [EUPAROTIN ACETATE] | 6.28 | 0.22 | – | –
C=C1C(=O)O[C@H]2[C@H]1[C@H](OC(=O)/C(C)=C/C)C[C@]1(CO1)[C@@H]1[C@H](O)C=C(C)[C@]21O [EUPAROTIN] | 6.25 | – | – | 0.21
C=C1C(=O)O[C@@H]2/C=C(\C)[C@@H](OC(C)=O)C/C=C(/C)C(O)[C@@H](OC(=O)/C(C)=C\C)[C@@H]12 (some centres undefined) [EUPATOCUNIN] | 6.57 | 0.11 (≈ 0.272 µM) | – | –
C=C1C(=O)O[C@@H]2/C=C(\C)[C@@H](OC(C)=O)CC=C(C)C(OC(=O)[C@]3(C)O[C@@H]3C)C(O)[C@@H]12 (some centres undefined) [EUPATOCUNOXIN] | 5.39 | 1.7 (≈ 4.04 µM) | – | –
C=C1C(=O)O[C@H]2[C@H]1[C@H](OC(=O)/C(C)=C\C)C[C@]1(CO1)[C@@H]1[C@H](O)[C@H]3O[C@@]3(C)[C@]21O [EUPATOROXIN] | 5.15 | 2.8 (≈ 7.14 µM) | – | –
C=C1C(=O)O[C@H]2C=C(C)[C@H]3[C@@H](OC(C)=O)C[C@@](C)(O)[C@@H]3C[C@H]12 [GAILLARDIN] | 5.12 | 2.3 (≈ 7.51 µM) | – | –
C=C1C(=O)O[C@@H]2/C=C(/C)[C@@]3(O)C=C[C@@](C)(C[C@@H](OC(=O)/C(=C\C)COC(C)=O)[C@@H]12)O3 [LIATRIN] | 5.41 | 1.62 (≈ 3.87 µM) | – | –
C=C1C(=O)O[C@@H]2[C@H]1CC[C@H](C)[C@]1(O)C=CC(=O)[C@@]21C [PARTHENIN] | 5.89 | 0.34 (≈ 1.3 µM) | – | –
C=C1C(=O)O[C@@H]2/C=C(\C)C[C@H](O)C=C(C)CC[C@@H]12 [TAMAULIPIN A] | 5.29 | 1.26 (≈ 5.07 µM) | – | –
C=C1C(=O)O[C@@H]2/C=C(\C)[C@H](O)CC=C(C)CC[C@@H]12 [TAMAULIPIN B] | 4.98 | 2.6 (≈ 10.5 µM) | – | –
C=C[C@@]12COC(=O)C(=C)[C@@H]1[C@H]1OC(=O)C(=C)[C@@H]1[C@@H](OC(=O)C(=C)CO)C2 [VERNODALIN] | 5.3 | 1.8 (≈ 4.99 µM) | – | –
C=C[C@@]12COC(=O)C(=C)[C@@H]1[C@H]1OC(=O)C(=C)[C@@H]1[C@@H](OC(C)=O)C2 [VERNOLEPIN ACETATE] | 5.07 | 2.7 | – | –
C=C[C@@]12COC(=O)C(=C)[C@@H]1[C@H]1OC(=O)C(=C)[C@@H]1[C@@H](O)C2 [VERNOLEPIN] | 5.19 | 1.8 (≈ 6.51 µM) | – | –
C=C[C@]12COC(=O)C(=C)[C@H]1[C@H](OC(C)=O)[C@H]1C(=C)C(=O)O[C@@H]1C2 [VERNOMENIN ACETATE] | 4.58 | 8 | – | –
C=C[C@@]12COC(=O)C(=C)[C@@H]1[C@@H](O)[C@@H]1C(=C)C(=O)O[C@H]1C2 [VERNOMENIN] | 3.9 | 35 (≈ 127 µM) | – | –
C=C1C(=O)O[C@@H]2/C=C3\CCC4OC4(C[C@H](OC(=O)C(C)C)[C@@H]12)C(O)OC3 (some centres undefined) [VERNOMYGDIN] | 5.39 | 1.5 (≈ 4.12 µM) | – | –

From ChEMBL document CHEMBL1140617, “Quantitative structure-activity relationship of sesquiterpene lactones with cytotoxic activity” (2007)
